In PubChem BioAssay (NCI):
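Values below derive from 48-hour exposures of cells grown in 96-well plates, with endpoints linearly interpolated between the two concentrations bracketing the appropriate inhibition level. The concentration for full growth arrest is given as TGI.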

Columns and labels:
Test in all cases: growth of human tumour cells (NCI), 48 h
[1] = tested on: UACC-62 melanoma
[2] = tested on: SF-539 CNS
[3] = tested on: NCI-H460 lung
[4] = tested on: A498 renal
[5] = tested on: PC-3 prostate
[6] = tested on: SN12C renal
[7] = tested on: MDA-MB-231 breast
[8] = tested on: M14 melanoma
[9] = tested on: SW-620 colon
[10] = tested on: HOP-62 NSCLC
[11] = tested on: MDA-MB-435
[12] = tested on: MALME-3M melanoma
[13] = tested on: MOLT-4 leukemia
[14] = tested on: NCI-H226 lung
[15] = tested on: NCI-H23 lung
[16] = tested on: RXF 393 renal
[17] = tested on: COLO 205 colon
[18] = tested on: IGROV1 ovarian
[19] = tested on: CCRF-CEM leukemia
[20] = tested on: HCT-15 colon
[21] = tested on: NCI/ADR-RES ovarian
[22] = tested on: A549 NSCLC
[23] = tested on: SF-295 CNS
[24] = tested on: RPMI-8226 leukemia
[25] = tested on: U251 CNS
[26] = tested on: OVCAR-4 ovarian
[27] = tested on: NCI-H522 lung
[28] = tested on: SNB-19 CNS
[29] = tested on: EKVX NSCLC
[30] = tested on: SK-MEL-28 melanoma
[31] = tested on: HCT-116 colon
[32] = tested on: UO-31 renal
[33] = tested on: MDA-N
[34] = tested on: ACHN renal
[35] = tested on: SK-MEL-5 melanoma
[36] = tested on: DU-145 prostate
[37] = tested on: LOX IMVI melanoma
[38] = tested on: UACC-257 melanoma
[39] = tested on: T-47D breast
[40] = tested on: TK-10 renal
[41] = tested on: OVCAR-3 ovarian
[42] = tested on: SR leukemia
[43] = tested on: CAKI-1 renal
[44] = tested on: 786-0 renal
[45] = tested on: SK-MEL-2 melanoma
[46] = tested on: HOP-92 NSCLC
[47] = tested on: KM12 colon
[48] = tested on: HL-60(TB) leukemia
[49] = tested on: OVCAR-5 ovarian
[50] = tested on: BT-549 breast
[51] = tested on: MCF7 breast
[52] = tested on: HCC-2998 colon
[53] = tested on: K-562 leukemia
[54] = tested on: SK-OV-3 ovarian
[55] = tested on: HT29 colon
[56] = tested on: SF-268 CNS
[57] = tested on: OVCAR-8 ovarian
[58] = tested on: SNB-75 CNS

**Q.** How did the TGI [1] turn out when `CCOC(=O)c1sc2nc(SC)nc(Nc3ccc4c(c3)OCO4)c2c1N` was run?
**A.** > 100 µM

**Q.** What about the TGI [2] of the same molecule?
**A.** > 100 µM

**Q.** What about the TGI [3] of the same molecule?
**A.** > 100 µM

**Q.** And the TGI [4]?
**A.** 96.9 µM

**Q.** What about the TGI [5] of the same molecule?
**A.** > 100 µM

**Q.** What about the TGI [6] of the same molecule?
**A.** > 100 µM

**Q.** What about the TGI [7] of the same molecule?
**A.** > 100 µM

**Q.** What about the TGI [8] of the same molecule?
**A.** > 100 µM

**Q.** What about the TGI [9] of the same molecule?
**A.** > 100 µM

**Q.** And the TGI [10]?
**A.** > 100 µM

**Q.** And the TGI [11]?
**A.** > 100 µM

**Q.** And the TGI [12]?
**A.** 97.6 µM

**Q.** What about the TGI [13] of the same molecule?
**A.** > 100 µM

**Q.** What about the TGI [14] of the same molecule?
**A.** > 100 µM

**Q.** What about the TGI [15] of the same molecule?
**A.** > 100 µM

**Q.** And the TGI [16]?
**A.** 31 µM

**Q.** And the TGI [17]?
**A.** > 100 µM

**Q.** What about the TGI [18] of the same molecule?
**A.** > 100 µM

**Q.** What about the TGI [19] of the same molecule?
**A.** > 100 µM

**Q.** And the TGI [20]?
**A.** > 100 µM

**Q.** What about the TGI [21] of the same molecule?
**A.** > 100 µM

**Q.** What about the TGI [22] of the same molecule?
**A.** > 100 µM

**Q.** What about the TGI [23] of the same molecule?
**A.** 84.8 µM

**Q.** And the TGI [24]?
**A.** > 100 µM

**Q.** And the TGI [25]?
**A.** > 100 µM

**Q.** And the TGI [26]?
**A.** > 100 µM

**Q.** What about the TGI [27] of the same molecule?
**A.** > 100 µM

**Q.** And the TGI [28]?
**A.** > 100 µM

**Q.** And the TGI [29]?
**A.** 77.5 µM

**Q.** What about the TGI [30] of the same molecule?
**A.** 63.1 µM

**Q.** What about the TGI [31] of the same molecule?
**A.** > 100 µM

**Q.** And the TGI [32]?
**A.** > 100 µM

**Q.** What about the TGI [33] of the same molecule?
**A.** > 100 µM

**Q.** What about the TGI [34] of the same molecule?
**A.** 69.4 µM

**Q.** And the TGI [35]?
**A.** > 100 µM

**Q.** And the TGI [36]?
**A.** > 100 µM

**Q.** What about the TGI [37] of the same molecule?
**A.** > 100 µM

**Q.** What about the TGI [38] of the same molecule?
**A.** > 100 µM

**Q.** What about the TGI [39] of the same molecule?
**A.** > 100 µM

**Q.** What about the TGI [40] of the same molecule?
**A.** > 100 µM

**Q.** And the TGI [41]?
**A.** > 100 µM

**Q.** What about the TGI [42] of the same molecule?
**A.** > 100 µM

**Q.** And the TGI [43]?
**A.** > 100 µM

**Q.** And the TGI [44]?
**A.** > 100 µM

**Q.** And the TGI [45]?
**A.** > 100 µM

**Q.** What about the TGI [46] of the same molecule?
**A.** 71.6 µM

**Q.** And the TGI [47]?
**A.** > 100 µM

**Q.** What about the TGI [48] of the same molecule?
**A.** > 100 µM

**Q.** And the TGI [49]?
**A.** > 100 µM

**Q.** And the TGI [50]?
**A.** > 100 µM

**Q.** And the TGI [51]?
**A.** > 100 µM

**Q.** What about the TGI [52] of the same molecule?
**A.** > 100 µM

**Q.** What about the TGI [53] of the same molecule?
**A.** > 100 µM

**Q.** For `COc1ccc(/C=C2/SC(c3ccccc3)N(NC(=O)CCCCCCCCC(=O)NN3C(=O)/C(=C\c4ccc(OC)c(OC)c4)SC3c3ccccc3)C2=O)cc1OC` (stereo not given), which TGI [1] is on record?
**A.** 98.7 µM

**Q.** What about the TGI [2] of the same molecule?
**A.** 79.1 µM

**Q.** And the TGI [3]?
**A.** > 100 µM

**Q.** What about the TGI [4] of the same molecule?
**A.** > 100 µM

**Q.** What about the TGI [5] of the same molecule?
**A.** > 100 µM

**Q.** And the TGI [6]?
**A.** > 100 µM

**Q.** What about the TGI [7] of the same molecule?
**A.** > 100 µM

**Q.** What about the TGI [8] of the same molecule?
**A.** > 100 µM

**Q.** What about the TGI [9] of the same molecule?
**A.** > 100 µM

**Q.** And the TGI [10]?
**A.** > 100 µM

**Q.** And the TGI [11]?
**A.** > 100 µM

**Q.** What about the TGI [13] of the same molecule?
**A.** 60.5 µM

**Q.** What about the TGI [54] of the same molecule?
**A.** > 100 µM

**Q.** And the TGI [14]?
**A.** > 100 µM

**Q.** And the TGI [15]?
**A.** > 100 µM

**Q.** And the TGI [16]?
**A.** > 100 µM

**Q.** And the TGI [17]?
**A.** > 100 µM

**Q.** What about the TGI [18] of the same molecule?
**A.** 61.7 µM

**Q.** What about the TGI [20] of the same molecule?
**A.** > 100 µM

**Q.** And the TGI [21]?
**A.** > 100 µM

**Q.** And the TGI [22]?
**A.** > 100 µM

**Q.** And the TGI [55]?
**A.** > 100 µM

**Q.** What about the TGI [23] of the same molecule?
**A.** 72.9 µM

**Q.** And the TGI [24]?
**A.** 72.6 µM

**Q.** What about the TGI [25] of the same molecule?
**A.** > 100 µM

**Q.** What about the TGI [26] of the same molecule?
**A.** > 100 µM

**Q.** What about the TGI [56] of the same molecule?
**A.** > 100 µM

**Q.** What about the TGI [28] of the same molecule?
**A.** > 100 µM

**Q.** What about the TGI [29] of the same molecule?
**A.** 94.8 µM

**Q.** What about the TGI [30] of the same molecule?
**A.** > 100 µM

**Q.** What about the TGI [31] of the same molecule?
**A.** > 100 µM

**Q.** And the TGI [32]?
**A.** > 100 µM

**Q.** And the TGI [33]?
**A.** 76.2 µM

**Q.** What about the TGI [34] of the same molecule?
**A.** 71.8 µM

**Q.** What about the TGI [36] of the same molecule?
**A.** > 100 µM

**Q.** And the TGI [38]?
**A.** > 100 µM

**Q.** What about the TGI [39] of the same molecule?
**A.** > 100 µM

**Q.** What about the TGI [40] of the same molecule?
**A.** > 100 µM

**Q.** And the TGI [57]?
**A.** > 100 µM

**Q.** And the TGI [58]?
**A.** > 100 µM

**Q.** What about the TGI [41] of the same molecule?
**A.** > 100 µM

**Q.** What about the TGI [42] of the same molecule?
**A.** 98.3 µM

**Q.** What about the TGI [43] of the same molecule?
**A.** > 100 µM

**Q.** What about the TGI [44] of the same molecule?
**A.** 91.3 µM

**Q.** What about the TGI [45] of the same molecule?
**A.** > 100 µM

**Q.** And the TGI [46]?
**A.** 66.3 µM

**Q.** And the TGI [47]?
**A.** > 100 µM

**Q.** And the TGI [49]?
**A.** > 100 µM

**Q.** What about the TGI [50] of the same molecule?
**A.** > 100 µM

**Q.** And the TGI [51]?
**A.** > 100 µM

**Q.** What about the TGI [52] of the same molecule?
**A.** > 100 µM

**Q.** What about the TGI [53] of the same molecule?
**A.** 62 µM
